Experimental data: ChEMBL document CHEMBL1149293, “Identification of 7-phenylaminothieno- [3,2-b]pyridine-6-carbonitriles as a new class of Src kinase inhibitors” (J Med Chem, 2004)

Molecular target: Proto-oncogene tyrosine-protein kinase Src (Homo sapiens, UniProt P12931)
Assay: Inhibition of Src kinase

Sequence of Proto-oncogene tyrosine-protein kinase Src (P12931 2-536 limits assumed): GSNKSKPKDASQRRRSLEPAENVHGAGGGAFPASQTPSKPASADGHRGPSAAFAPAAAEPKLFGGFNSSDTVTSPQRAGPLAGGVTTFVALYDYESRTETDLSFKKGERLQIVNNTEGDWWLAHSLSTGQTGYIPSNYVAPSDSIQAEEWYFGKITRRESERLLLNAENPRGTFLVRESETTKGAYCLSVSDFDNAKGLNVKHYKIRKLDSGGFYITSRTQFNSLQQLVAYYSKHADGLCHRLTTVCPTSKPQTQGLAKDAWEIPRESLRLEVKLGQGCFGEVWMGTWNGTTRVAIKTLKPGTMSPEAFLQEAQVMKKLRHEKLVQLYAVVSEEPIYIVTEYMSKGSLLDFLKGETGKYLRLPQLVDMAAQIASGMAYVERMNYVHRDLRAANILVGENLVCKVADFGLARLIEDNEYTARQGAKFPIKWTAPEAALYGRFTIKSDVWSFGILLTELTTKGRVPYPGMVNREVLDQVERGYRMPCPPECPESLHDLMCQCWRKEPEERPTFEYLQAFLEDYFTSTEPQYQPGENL

IC50 [µM]	SMILES
> 10	COc1cc(Nc2c(C#N)cnc3c(-c4ccc(CN5CCOCC5)cc4)csc23)c(Cl)cc1Cl
> 10	COc1cc(Nc2c(C#N)cnc3cc(-c4ccccc4N4CCN(C)CC4)sc23)c(Cl)cc1Cl
